Reference: US20160051529A1, “PPAR-SPARING THIAZOLIDINEDIONES AND COMBINATIONS FOR THE TREATMENT OF NEURODEGENERATIVE AND OTHER METABOLIC DISEASES” (METABOLIC SOLUTIONS DEVELOPMENT COMPANY LLC, priority 2012, published 2016)

Key:
[1] = target: T1, human PPARγ ligand binding domain (LBD) (Homo sapiens, UniProt P37231); assay: TR-FRET PPARγ competitive binding assay (Invitrogen LanthaScreen)
T1 construct: purchased Invitrogen #4894
T1 sequence (P37231 238-503 limits assumed): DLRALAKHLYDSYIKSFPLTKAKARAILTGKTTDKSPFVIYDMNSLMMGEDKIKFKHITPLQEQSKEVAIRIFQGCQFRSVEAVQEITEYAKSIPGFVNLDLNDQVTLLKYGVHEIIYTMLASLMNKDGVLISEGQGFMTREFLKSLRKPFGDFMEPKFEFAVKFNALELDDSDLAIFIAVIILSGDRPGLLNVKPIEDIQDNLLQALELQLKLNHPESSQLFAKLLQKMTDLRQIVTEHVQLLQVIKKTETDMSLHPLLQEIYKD
Experimental: Whereas activation of the PPARγ receptor is generally believed to be a selection criteria to select for molecules that may have anti-diabetic and insulin sensitizing pharmacology, this invention finds that activation of this receptor should be a negative selection criterion. Molecules will be chosen from this chemical space because they have reduced, not just selective, activation of PPARγ. […] The assays are conducted by first evaluation of the direct interactions of the molecules with the ligand binding domain of PPARγ. This can be performed with a commercial interaction kit that measures the direct interaction by florescence using rosiglitazone as a positive control.
PPARγ binding is measured by a TR-FRET competitive binding assay using Invitrogen LanthaScreen™ TR-FRET PPARγ Competitive Binding Assay (Invitrogen #4894). This assay uses a terbium-labeled anti-GST antibody to label the GST tagged human PPARγ ligand binding domain (LBD). A fluorescent small molecule pan-PPAR ligand tracer binds to the LBD causing energy transfer from the antibody to the ligand resulting in a high TR-FRET ratio. Competition binding by PPARγ ligands displace the tracer from the LBD causing a lower FRET signal between the antibody and tracer. The TR-FRET ratio is determined by reading the fluorescence emission at 490 and 520 nm using a Synergy2 plate reader (BioTek). The ability of several exemplary compounds of the present invention to bind to PPARγ was also measured using a commercial binding assay (Invitrogen Corporation, Carlsbad, Calif.) that measures the test compounds ability to bind with PPAR-LBD/Fluormone PPAR Green complex. These assays were performed on three occasions with each assay using four separate wells (quadruplicate) at each concentration of tested compound. The data are mean and SEM of the values obtained from the three experiments. Rosiglitazone was used as the positive control in each experiment. Compounds were added at the concentrations shown, which ranged from 0.1-100 micromolar.

[2] = Glucose, triglycerides and insulin, T/C normalized to vehicle; type: in vivo; details: normalized to vehicle activity
[3] = tested on: PGC-1α; assay: Expression of PGC-1α mRNA in precursor BAT cells with norepinephrine; type: cell-based; details: 3 μM compound for seven days, then 1 μM norepinephrine for 2 hours, quantitative PCR
Experimental: Another example of the ability of augmented signaling between cyclic nucleotides and compounds of Formula I is shown by the effect on expression of PGC-1α, a known regulator of mitochondrial biogenesis. Increased numbers of mitochondria are predictive of utility for the reduction of body weight.
Precursor BAT cells were isolated as described above and treated with or without 3 μM compounds: 1.] Compound A: 5-(4-(2-(5-ethylpyridin-2-yl)-2-oxoethoxy)benzyl)-1,3-thiazolidine-2,4-dione; 2.] Compound B: 5-(4-(2R)-2-(5-ethylpyridin-2-yl)-2-hydroxyethoxyy)benzyl)-1,3-thiazolidine-2,4-dione; or 3.] Compound C: 5-(4-(2-(3-methoxyphenyl)-2-oxoethoxy)benzyl)-1,3-thiazolidine-2,4-dione for seven days followed by treatment with 1 μM norepinephrine for 2 hours. Total RNA was isolated from the cells and the RNA message (mRNA) for PGC-1α was measured by quantitative polymerase chain reactions.

[4] = tested on: 5XFAD mice; assay: Plaque pathology in hippocampus of 5XFAD mice; type: in vivo; details: chow delivering 390 mg/kg for 4 weeks
Experimental: 5XFAD mice harbor 5 familial mutations (3 in the amyloid precursor protein; 2 in presenilin 1) and develop robust plaque pathology as early as 6 weeks. These mice were treated beginning at 2 months of age for a period of 4 weeks with control chow or chow containing Compound A to deliver 390 mg/kg for 4 weeks.
Referring to FIG. 7, […] stained plaques were counted in the hippocampus of the 5XFAD mice. […] Note that the plaques having less than 100 micron size were excluded from the graph, and those amounted to about 70% of all the plaques in both Control and Compound A treated groups.

SMILES	IC50 [1] [µM]	also measured
CCOC(Cc1ccc(OCC(=NO)c2cccc(OC)c2)cc1)C(=O)O (stereo not drawn) [Compound 48]	14.7	
CCO[C@@H](Cc1ccc(OC[C@H](NS(C)(=O)=O)c2ccccc2)cc1)C(=O)O [Compound 60]	80.3	
CCO[C@@H](Cc1ccc(OC[C@@H](N)c2ccccc2)cc1)C(=O)O [Compound 57]	39.7	
CCOC(Cc1ccc(OCC(=O)c2ccc(CC)cn2)cc1)C(=O)O (stereo not drawn) [Compound 1]	17.8	
CCO[C@@H](Cc1ccc(OC[C@@H](NC=O)c2ccccc2)cc1)C(=O)O [Compound 58]	12.3	
CCOC(Oc1ccc(OC[C@@H](O)c2ccc(CC)cn2)cc1)C(=O)O (stereo partly drawn) [Compound 35]	0.3	Insulin (T/C) ([2]; @7.5): 0.20@7.5 T/C; Triglycerides (mean T/C) ([2]; @7.5): 0.32@7.5 T/C; Insulin (T/C) ([2]; @15): 0.44@15 T/C; Triglycerides (mean T/C) ([2]; @15): 0.24@15 T/C; Insulin (T/C) ([2]; @30): 0.11@30 T/C; Triglycerides (mean T/C) ([2]; @30): 0.17@30 T/C
CCO[C@@H](Cc1ccc(OC[C@@H](NC(C)=O)c2ccccc2)cc1)C(=O)O [Compound 56]	33.7	
CCc1ccc([C@@H](O)COc2ccc(CC3SC(=O)NC3=O)cc2)nc1 (stereo partly drawn) [Compound B]		PGC-1α mRNA (message) [3]: an increase in PGC-1α message was observed
COc1cccc(C(=O)COc2ccc(C[C@@H](O)C(=O)O)cc2)c1 [Compound 53]	> 263	
CCO/C(=C\c1ccc(OC/C(=N/OC)c2ccc(CC)cn2)cc1)C(=O)O [Compound 17]	21	
COc1cccc(C(=O)COc2cccc(O[C@H](C)C(=O)O)c2)c1 [Compound 15]	100	
CCOC(=O)[C@H](Cc1ccc(OC[C@@H](N)c2ccccc2)cc1)OCC [Compound 62]	84.8	
CCOC(Cc1ccc(OC[C@@H](F)c2cccc(OC)c2)cc1)C(=O)O (stereo partly drawn) [Compound 50]	157	
CCO/C(=C\c1cccc(OCC(=O)c2cccc(OC)c2)c1)C(=O)O [Compound 13]	21.8	Insulin (T/C) ([2]; no dose given): 0.81 T/C; Triglycerides (mean T/C) ([2]; no dose given): 0.86 T/C
COc1cccc(C(=O)COc2ccc(CC3SC(=O)NC3=O)cc2)c1 (stereo not drawn) [Compound C, 5-(4-(2-(3-methoxyphenyl)-2-oxoethoxy)benzyl)-1,3-thiazolidine-2,4-dione]		PGC-1α mRNA (message) [3]: an increase in PGC-1α message was observed
CCO/C(=C\c1ccc(OCC(=O)c2ccc(CC)cn2)cc1)C(=O)O [Compound 14]	96.1	
CCOC(Oc1ccc(OC[C@H](O)c2ccc(CC)cn2)cc1)C(=O)O (stereo partly drawn) [Compound 36]	17.6	Triglycerides (mean T/C) ([2]; @0.5): 0.50@0.5 T/C; Insulin (T/C) ([2]; @7.5): 0.26@7.5 T/C; Triglycerides (mean T/C) ([2]; @7.5): 0.41@7.5 T/C; Insulin (T/C) ([2]; @15): 0.33@15 T/C; Insulin (T/C) ([2]; @30): 0.46@30 T/C; Triglycerides (mean T/C) ([2]; @30): 0.38@30 T/C
CCO[C@@H](Cc1ccc(OC[C@H](NC=O)c2ccccc2)cc1)C(=O)O [Compound 59]	> 250	
COc1cccc(C(=O)COc2ccc(CC(=O)C(=O)O)cc2)c1 [Compound 10]	111	
CCOC(Cc1ccc(OC/C(=N/OC)c2ccc(CC)cn2)cc1)C(=O)O (stereo not drawn) [Compound 18]	62.2	
CCO[C@@H](Cc1ccc(OC[C@@H](NC(=O)OC(C)(C)C)c2ccccc2)cc1)C(=O)O [Compound 55]	18.9	
CCOC(Cc1ccc(OCC(=O)c2cccc(OC)c2)cc1)C(=O)O (stereo not drawn) [Compound 47]	6.07	Insulin (T/C) ([2]; no dose given): 0.26 T/C; Triglycerides (mean T/C) ([2]; no dose given): 0.33 T/C
CCOC(=O)[C@H](Cc1ccc(OC[C@@H](NC(=O)OC(C)(C)C)c2ccccc2)cc1)OCC [Compound 61]	14.1	
CCc1ccc(C(=O)COc2ccc(CC3SC(=O)NC3=O)cc2)nc1 (stereo not drawn) [Compound A, 5-(4-(2-(5-ethylpyridin-2-yl)-2-oxoethoxy)benzyl)-1,3-thiazolidine-2,4-dione]		plaques having less than 100 micron size, share of all the plaques ([4]; same in the control group): about 70%; size and number of thioflavin stained plaques in the hippocampus ([4]; versus control chow): less than the control group; PGC-1α mRNA (message) [3]: an increase in PGC-1α message was observed
